We go through 17 compounds from patent US10829473B2, “Modulators of the cystic fibrosis transmembrane conductance regulator protein and methods of use” (AbbVie Overseas S.Á.R.L., priority 2017, dated 2020).

The target of this test is T1, F508delCFTR (Homo sapiens, UniProt P13569, DEL508-508).
T1 construct: expressed in transfected cells; host or cells: CFBE41o- human lung derived epithelial cells (CFBE41o-F508delCFTR-HRP), doxycycline-inducible
The test is described as follows: Cell Surface Expression-Horse Radish Peroxidase (CSE-HRP) Assay.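 On EC50 (with co-corrector): co-corrector chromenyl benzoic acid corrector at 2 or 3 µM.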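 On Maximum % activity (without co-corrector): % of on-plate positive control chromenyl benzoic acid corrector at 2 or 3 µM.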 The format is cell-based. The conditions noted are these: for Maximum % activity (with co-corrector) / Emax: maximum at any tested concentration; for Emax: read-out: Maximum % activity (without co-corrector). Put shortly: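 Corrector compounds were given as 8-point 3-fold series from 20 or 30 μM, with or without a 2 μM co-corrector, for 18-24 h at 33 °C. Surface HRP was read by luminol luminescence as % of positive control; variable-Hill-slope sigmoidal fitting gave EC50 from triplicate plates.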

[1] abbreviates: test compound with co-corrector.
[2] abbreviates: test compound with co-corrector, read-out: EC50 (with co-corrector).
[3] abbreviates: test compound without co-corrector.
Setting [4] is: test compound without co-corrector, read-out: EC50 (without co-corrector).

pEC50: −log10 of the molar value. Like-named read-outs stand apart in the source and are kept apart here. Marks after values point to notes of the source that are not given here.

T1 sequence (P13569 with tags, fused parts or gaps DEL508-508): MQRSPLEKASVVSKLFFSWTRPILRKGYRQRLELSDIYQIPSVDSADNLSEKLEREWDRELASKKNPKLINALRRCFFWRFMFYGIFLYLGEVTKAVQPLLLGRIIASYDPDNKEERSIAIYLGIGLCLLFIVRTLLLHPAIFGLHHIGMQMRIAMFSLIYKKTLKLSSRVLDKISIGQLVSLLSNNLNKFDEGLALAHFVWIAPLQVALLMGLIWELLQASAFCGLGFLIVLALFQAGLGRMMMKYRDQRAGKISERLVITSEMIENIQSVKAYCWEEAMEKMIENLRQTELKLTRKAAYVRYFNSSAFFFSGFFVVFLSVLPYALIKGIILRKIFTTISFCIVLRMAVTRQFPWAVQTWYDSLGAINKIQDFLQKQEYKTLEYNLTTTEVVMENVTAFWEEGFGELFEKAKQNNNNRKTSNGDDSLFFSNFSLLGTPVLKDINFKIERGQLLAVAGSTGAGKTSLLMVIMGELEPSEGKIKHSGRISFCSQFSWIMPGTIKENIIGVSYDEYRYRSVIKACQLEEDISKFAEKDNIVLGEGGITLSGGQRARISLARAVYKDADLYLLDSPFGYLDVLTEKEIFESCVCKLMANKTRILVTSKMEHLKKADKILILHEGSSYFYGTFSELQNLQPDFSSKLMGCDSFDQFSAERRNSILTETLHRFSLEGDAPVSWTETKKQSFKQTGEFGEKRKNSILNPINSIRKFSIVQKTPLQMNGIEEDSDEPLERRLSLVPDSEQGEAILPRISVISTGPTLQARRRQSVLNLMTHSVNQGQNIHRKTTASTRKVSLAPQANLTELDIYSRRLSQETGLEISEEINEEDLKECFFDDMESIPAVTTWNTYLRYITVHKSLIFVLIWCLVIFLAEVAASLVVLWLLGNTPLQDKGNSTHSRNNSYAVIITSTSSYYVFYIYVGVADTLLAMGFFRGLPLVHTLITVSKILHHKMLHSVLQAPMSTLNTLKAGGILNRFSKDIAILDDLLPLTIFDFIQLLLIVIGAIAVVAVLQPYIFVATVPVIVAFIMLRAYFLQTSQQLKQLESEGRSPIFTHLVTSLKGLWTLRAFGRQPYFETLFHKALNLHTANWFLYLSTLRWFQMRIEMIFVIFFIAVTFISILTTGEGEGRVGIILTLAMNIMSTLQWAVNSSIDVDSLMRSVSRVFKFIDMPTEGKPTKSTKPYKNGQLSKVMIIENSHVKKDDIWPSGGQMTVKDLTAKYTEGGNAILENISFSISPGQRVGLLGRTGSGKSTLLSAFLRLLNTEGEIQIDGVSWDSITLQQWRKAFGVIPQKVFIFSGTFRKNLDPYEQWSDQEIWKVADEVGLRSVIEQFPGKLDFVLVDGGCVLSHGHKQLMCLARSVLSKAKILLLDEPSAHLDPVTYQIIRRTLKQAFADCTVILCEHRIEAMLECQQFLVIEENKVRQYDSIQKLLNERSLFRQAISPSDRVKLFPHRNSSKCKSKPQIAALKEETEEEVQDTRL

What is called pEC50 is the negative decadic logarithm of the EC50, by convention in mol/L. `O=C(NS(=O)(=O)c1cccc2ccccc12)C1(c2cc(Cl)cnc2C(F)(F)F)CC1` [GII-5, 1-[5-chloro-2-(trifluoromethyl)pyridin-3-yl]-N-(naphthalene-1-sulfonyl)cyclopropane-1-carboxamide]: under setting [1], the “Maximum % activity (with co-corrector)” value is “++ (≥150 and <350)”. The pEC50 reads like this: under setting [2], 5.00 to 5.52; under setting [4], 5.00 to 5.52. For the same compound, the Emax under setting [3] was 50 to 150%.

As to `COc1cc(C2(C(=O)NS(=O)(=O)c3cccc4ncccc34)CC2)c(Cl)cn1` [GII-6, 1-(5-chloro-2-methoxypyridin-4-yl)-N-(quinoline-5-sulfonyl)cyclopropane-1-carboxamide], under setting [1], the “Maximum % activity (with co-corrector)” value was “++ (≥150 and <350)”. Also, the negative-log EC50 (pEC50) was 5.00 to 5.52 under setting [2] and 5.00 to 5.52 under setting [4]. Besides, the Emax under setting [3] was 50 to 150%.

With `COc1cc(C2(C(=O)NS(=O)(=O)c3cccc4c3CCCN4)CC2)c(Cl)cn1` [GII-7, 1-(5-chloro-2-methoxypyridin-4-yl)-N-(1,2,3,4-tetrahydroquinoline-5-sulfonyl)cyclopropane-1-carboxamide], the “Maximum % activity (with co-corrector)” value under setting [1] is reported as “+++ (≥350)”. Further, the pEC50 was 5.00 to 5.52 under setting [2] and 5.00 to 5.52 under setting [4]. The Emax under setting [3] lay within 50 to 150%.

Take `Cc1cnc(N2CCOCC2)cc1C1(C(=O)NS(=O)(=O)c2cccc3ncccc23)CC1` [GII-8, 1-[5-methyl-2-(morpholin-4-yl)pyridin-4-yl]-N-(quinoline-5-sulfonyl)cyclopropane-1-carboxamide]: under setting [1], the “EC50 (with co-corrector)” value is “++^a”; the “Maximum % activity (with co-corrector)” value is “++ (≥150 and <350)”. In addition, under setting [3], the Emax was below 50%. Under setting [4], the pEC50 was below 5.00.

As to `Cc1cnc(N2CCCC2)cc1C1(C(=O)NS(=O)(=O)c2cccc3ncccc23)CC1` [GII-9, 1-[5-methyl-2-(pyrrolidin-1-yl)pyridin-4-yl]-N-(quinoline-5-sulfonyl)cyclopropane-1-carboxamide], the “Maximum % activity (with co-corrector)” value under setting [1] is “++ (≥150 and <350)”. For the same compound, the pEC50 was 5.00 to 5.52 under setting [2] and 5.00 to 5.52 under setting [4]. Also, under setting [3], the Emax was 50 to 150%.

Turning to `COc1nc(C(F)(F)F)ccc1C1(C(=O)NS(=O)(=O)c2cccc3ncccc23)CC1` [GII-10, 1-[2-methoxy-6-(trifluoromethyl)pyridin-3-yl]-N-(quinoline-5-sulfonyl)cyclopropane-1-carboxamide], the “Maximum % activity (with co-corrector)” value under setting [1] is on record as “+++ (≥350)”. Moreover, the pEC50 runs as follows: under setting [2], 5.00 to 5.52; under setting [4], 5.00 to 5.52. In addition, the Emax under setting [3] is above 150%.

In the case of `Cc1cnc(N(C)C)cc1C1(C(=O)NS(=O)(=O)c2cccc3ncccc23)CC1` [GII-11, 1-[2-(dimethylamino)-5-methylpyridin-4-yl]-N-(quinoline-5-sulfonyl)cyclopropane-1-carboxamide], the “Maximum % activity (with co-corrector)” value under setting [1] was “+++ (≥350)”. Moreover, under setting [2], the pEC50 was 5.00 to 5.52. Further, under setting [3], the “EC50 (without co-corrector)” value is “++^a” and the Emax lay within 50 to 150%.

As to `COc1nc(C(F)(F)F)ccc1C1(C(=O)NS(=O)(=O)c2cccc3c2CCCN3)CC1` [GII-12, 1-[2-methoxy-6-(trifluoromethyl)pyridin-3-yl]-N-(1,2,3,4-tetrahydroquinoline-5-sulfonyl)cyclopropane-1-carboxamide], the “Maximum % activity (with co-corrector)” value under setting [1] is “+++ (≥350)”. Moreover, the pEC50 runs as follows: under setting [2], 5.00 to 5.52; under setting [4], 5.00 to 5.52. Moreover, the Emax under setting [3] lay in the range of 50 to 150%.

Take `COc1cc(C2(C(=O)NS(=O)(=O)c3cccc4ncccc34)CC2)c(C)cn1` [GII-13, 1-(2-methoxy-5-methylpyridin-4-yl)-N-(quinoline-5-sulfonyl)cyclopropane-1-carboxamide]: the “Maximum % activity (with co-corrector)” value under setting [1] is “+++ (≥350)”. In addition, the negative logarithm of the EC50 (pEC50) is 5.00 to 5.52 under setting [2] and 5.00 to 5.52 under setting [4]. Further, the Emax under setting [3] fell in the range of 50 to 150%.

Regarding `O=C(NS(=O)(=O)c1cccc2ncccc12)C1(c2ccc(C(F)(F)F)nc2C2CCC2)CC1` [GII-14, 1-[2-cyclobutyl-6-(trifluoromethyl)pyridin-3-yl]-N-(quinoline-5-sulfonyl)cyclopropane-1-carboxamide], the “Maximum % activity (with co-corrector)” value under setting [1] is on record as “+++ (≥350)”. Besides, the negative logarithm of the EC50 (pEC50) is, setting by setting: under setting [2], 5.00 to 5.52; under setting [4], 5.00 to 5.52. Besides, the Emax under setting [3] is above 150%.

On to `COc1cnc(C2CC2)c(C2(C(=O)NS(=O)(=O)c3cccc4ncccc34)CC2)c1` [GII-15, 1-(2-cyclopropyl-5-methoxypyridin-3-yl)-N-(quinoline-5-sulfonyl)cyclopropane-1-carboxamide], for which, under setting [1], the “Maximum % activity (with co-corrector)” value was “+++ (≥350)”. Besides, the pEC50 is 5.00 to 5.52 under setting [2] and 5.00 to 5.52 under setting [4]. The Emax under setting [3] is above 150%.

In the case of `CCc1ncc(OC(C)C)cc1C1(C(=O)NS(=O)(=O)c2cccc3ncccc23)CC1` [GII-16, 1-{2-ethyl-5-[(propan-2-yl)oxy]pyridin-3-yl}-N-(quinoline-5-sulfonyl)cyclopropane-1-carboxamide], the “Maximum % activity (with co-corrector)” value under setting [1] was “++ (≥150 and <350)”. In addition, the negative logarithm of the EC50 (pEC50) under setting [2] is 5.00 to 5.52. Under setting [3], the “EC50 (without co-corrector)” value is “++^a” and the Emax is 50 to 150%.

Take `CCc1ncc(OC)cc1C1(C(=O)NS(=O)(=O)c2cccc3ncccc23)CC1` [GII-17, 1-(2-ethyl-5-methoxypyridin-3-yl)-N-(quinoline-5-sulfonyl)cyclopropane-1-carboxamide]: under setting [1], the “Maximum % activity (with co-corrector)” value is “++ (≥150 and <350)”. The negative logarithm of the EC50 (pEC50) by setting is: under setting [2], 5.00 to 5.52; under setting [4], 5.00 to 5.52. Under setting [3], the Emax is below 50%.

As to `COc1nc(N(C)C)ccc1C1(C(=O)NS(=O)(=O)c2cccc3ncccc23)CC1` [GII-18, 1-[6-(dimethylamino)-2-methoxypyridin-3-yl]-N-(quinoline-5-sulfonyl)cyclopropane-1-carboxamide], the “Maximum % activity (with co-corrector)” value under setting [1] is “+++ (≥350)”. The pEC50 under setting [2] is 5.00 to 5.52 and the pEC50 under setting [4] was 5.00 to 5.52. Further, the Emax under setting [3] is above 150%.

In the case of `COc1ccc(C2(C(=O)NS(=O)(=O)c3cccc4ccccc34)CC2)c(C)n1` [GII-19, 1-(6-methoxy-2-methylpyridin-3-yl)-N-(naphthalene-1-sulfonyl)cyclopropane-1-carboxamide], under setting [1], the “Maximum % activity (with co-corrector)” value is given as “+++ (≥350)”. The pEC50 under setting [2] was 5.00 to 5.52. Besides, under setting [3], the “EC50 (without co-corrector)” value is “++^a” and the Emax lay in the range of 50 to 150%.

As for `CCc1ccncc1C1(C(=O)NS(=O)(=O)c2cccc3ccccc23)CC1` [GII-20, 1-(4-ethylpyridin-3-yl)-N-(naphthalene-1-sulfonyl)cyclopropane-1-carboxamide], under setting [1], the “EC50 (with co-corrector)” value is “++^a”; the “Maximum % activity (with co-corrector)” value is “++ (≥150 and <350)”. Under setting [3], the “EC50 (without co-corrector)” value is reported as “++^a” and the Emax fell in the range of 50 to 150%.

For the compound `CCc1ccncc1C1(C(=O)NS(=O)(=O)c2cccc3c2CCCN3)CC1` [GII-21, 1-(4-ethylpyridin-3-yl)-N-(1,2,3,4-tetrahydroquinoline-5-sulfonyl)cyclopropane-1-carboxamide], the “Maximum % activity (with co-corrector)” value under setting [1] was “++ (≥150 and <350)”. Moreover, the pEC50 is 5.00 to 5.52 under setting [2] and below 5.00 under setting [4]. Besides, under setting [3], the Emax is below 50%.
